Assay results: patent US10752587B2, “Homobispiperidinyl derivatives as liver X receptor beta agonists, compositions and their use” (Merck Sharp & Dohme Corp., priority 2015, dated 2020)
Read-outs that look alike come from different tables or passages of the source.

How the values were obtained:
[1] = molecular target: T1, glutathione-S-transferase (GST) tagged LXRbeta LBD (ligand binding domain) (Homo sapiens, UniProt P55055); assay: LanthaScreen TR-FRET Liver X Receptor Coactivator Assay, co-activator recruitment to LXRbeta LBD; assay type: biochemical
T1 construct: purchased Invitrogen pv4658.pps
T1 sequence (P55055 222-460 limits assumed): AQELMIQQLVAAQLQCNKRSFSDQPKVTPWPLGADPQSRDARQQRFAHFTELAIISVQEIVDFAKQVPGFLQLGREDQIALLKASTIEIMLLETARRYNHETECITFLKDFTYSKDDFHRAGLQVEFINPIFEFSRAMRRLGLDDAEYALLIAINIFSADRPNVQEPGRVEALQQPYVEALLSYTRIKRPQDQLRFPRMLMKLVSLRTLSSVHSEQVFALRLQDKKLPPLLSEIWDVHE
In short: (§1)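 Compound-induced coactivator recruitment by the GST-fused ligand binding domain, detected as TR-FRET between Tb-labelled anti-GST antibody and fluorescein-tagged coactivator peptide after room-temperature incubation. IP and Emax expressed versus T0901317 as reference agonist.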

[2] = molecular target: T2, glutathione-S-transferase (GST) tagged LXRalpha LBD (ligand binding domain) (Homo sapiens, UniProt Q13133); assay: LanthaScreen TR-FRET Liver X Receptor Coactivator Assay, co-activator recruitment to LXRalpha LBD; assay type: biochemical; settings: for LXR alpha IP (nM) / EC50: potency (Inflection Point, IP), co-activator recruitment to LXRalpha LBD, in relation to T0901317; for EC50: read-out: LXR alpha IP
T2 construct: purchased Invitrogen pv4655
T2 sequence (Q13133 209-447 limits assumed): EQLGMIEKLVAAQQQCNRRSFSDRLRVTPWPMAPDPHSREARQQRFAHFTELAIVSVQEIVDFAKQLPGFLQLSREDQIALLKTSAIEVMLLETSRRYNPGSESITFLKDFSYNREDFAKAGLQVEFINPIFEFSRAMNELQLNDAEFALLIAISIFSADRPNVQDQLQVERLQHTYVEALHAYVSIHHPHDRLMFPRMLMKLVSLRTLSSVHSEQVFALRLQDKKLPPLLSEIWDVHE
In short: as §1

[3] = efficacy at max dose, in relation to reference dual agonist T0901317, read-out: LXR beta Activity @ max dose (%)
[4] = potency (Inflection Point, IP), co-activator recruitment to LXRbeta LBD, in relation to T0901317, read-out: LXR beta IP
[5] = efficacy at max dose, in relation to reference dual agonist T0901317, read-out: LXR alpha Activity @ max dose (%)
[6] = efficacy at max dose, in relation to reference dual agonist T0901317

Structure (SMILES)	Emax [1, 3] [%]	EC50 [1, 4] [µM]	Emax [2, 5] [%]	LXR alpha IP (nM) [2]	EC50 [2] [µM]	LXR beta Activity @ max dose (%) [1, 6] [%]	LXR alpha Activity @ max dose (%) [2, 6] [%]	EC50 ([1]; co-activator recruitment to GST-LXRbeta LBD, TR-FRET, read-out: LXR beta IP (Inflection Point, potency)) [µM]	Emax ([1]; efficacy in relation to reference dual agonist T0901317, read-out: LXR beta Activity @ max dose) [%]	LXR alpha IP (Inflection Point, potency) ([2]; co-activator recruitment to GST-LXRalpha LBD, TR-FRET)	Emax ([2]; efficacy in relation to reference dual agonist T0901317, read-out: LXR alpha Activity @ max dose) [%]
COc1cccc([C@@](O)(C(=O)N2CCC(CC3CCN(c4ccc(C(=O)N(C)C)c(Cl)c4)CC3)CC2)C(F)(F)F)c1 [Example 2-35, 2-chloro-N,N-dimethyl-4-[4-({1-[(2R)-3,3,3-trifluoro-2-hydroxy-2-(3-methoxyphenyl)propanoyl]piperidin-4-yl}methyl)piperidin-1-yl]benzamide]	44	0.008	6	NO IP							
CN(C)C(=O)c1ccc(N2CCC(CC3CN(C(=O)[C@](O)(c4cccc(OC(F)(F)F)c4)C(F)(F)F)C3)CC2)cc1Cl [Example 2-68, 2-chloro-N,N-dimethyl-4-{4-[(1-{(2R)-3,3,3-trifluoro-2-hydroxy-2-[3-(trifluoro-methoxy)phenyl]propanoyl}azetidin-3-yl)methyl]piperidin-1-yl}benzamide]		0.022		NO IP		63	16				
COc1cccc([C@@](O)(C(=O)N2CCC(OC3CCN(c4ccc(C(=O)N(C)C)c(Cl)c4)CC3)CC2)C(F)(F)F)c1 [Example 2-28, 2-chloro-N,N-dimethyl-4-[4-({1-[(2R)-3,3,3-trifluoro-2-hydroxy-2-(3-methoxyphenyl)propanoyl]piperidin-4-yl}oxy)piperidin-1-yl]benzamide]	87	0.025	28		1.74						
O=C(c1ccc(N2CCC(CC3CCN(C(=O)[C@](O)(c4ccccc4)C(F)(F)F)CC3)CC2)cc1Cl)N1CCC(n2ccnc2)C1 (stereo partly drawn) [Example 4-19, (2R)-3-(4-{[1-(3-chloro-4-{[3-(1H-imidazol-1-yl)pyrrolidin-1-yl]carbonyl}phenyl)piperidin-4-yl]methyl}piperidin-1-yl)-1,1,1-trifluoro-3-oxo-2-phenylpropan-2-ol]	43	0.141	25		0.765						
CCOc1cccc([C@@](O)(C(=O)N2CCC(C)(CC3CCN(c4ccc(C(=O)N(C)C)c(C)c4)CC3)CC2)C(F)(F)F)c1 [Example 2-79, 4-[4-({1-[(2R)-2-(3-ethoxy-phenyl)-3,3,3-trifluoro-2-hydroxy-propanoyl]-4-methylpiperidin-4-yl}methyl)piperidin-1-yl]-N,N,2-trimethyl-benzamide]	30	0.04	0	NO IP							
CN(C)C(=O)c1ccc(N2CCC(OC3CCN(C(=O)C(F)(F)F)CC3)CC2)cc1Cl [Example 2-29, 2-chloro-N,N-dimethyl-4-(4-{[1-(trifluoro-acetyl)piperidin-4-yl]oxy}piperidin-1-yl)benzamide]	65	3.79	25	NO IP							
CN(C)C(=O)c1ccc(N2CCC(CC3CCN(C(=O)[C@@](O)(c4ccccc4)C(F)(F)F)CC3)CC2)cc1 [Example 2-127, N,N-dimethyl-4-[4-({1-[(2S)-3,3,3-trifluoro-2-hydroxy-2-phenyl-propanoyl]piperidin-4-yl}methyl)piperidin-1-yl]benzamide]	68	0.877	9	NO IP							
CN(C)C(=O)c1ccc(N2CCC(CC3CCN(C(=O)[C@@](O)(c4cccc(C(F)(F)F)c4)C(F)(F)F)CC3)CC2)cc1Cl [Example 2-33, 2-chloro-N,N-dimethyl-4-{4-[(1-{(2S)-3,3,3-trifluoro-2-hydroxy-2-[3-(trifluoromethyl)phenyl]propanoyl}piperidin-4-yl)methyl]piperidin-1-yl}benzamide]	75	0.722	5	NO IP							
CN(C)C(=O)c1ccc(N2CCC(CC3CCN(C(=O)C(C)(C)c4ccccc4)CC3)CC2)cc1Cl [Example 2-1, 2-chloro-N,N-dimethyl-4-(4-((1-(2-methyl-2-phenylpropanoyl)piperidin-4-yl)methyl)piperidin-1-yl)benzamide]	59	0.157	5	NO IP							
CN(C)C(=O)c1ccc(N2CCC(CC3CCN(C(=O)C4(c5ccccc5)CCC4)CC3)CC2)cc1Cl [Example 2-18, 2-chloro-N,N-dimethyl-4-[4-({1-[(1-phenylcyclobutyl)carbonyl]piperidin-4-yl}methyl)piperidin-1-yl]benzamide]	46	0.151	6	NO IP							
CN(C)C(=O)c1ccc(N2CCC(OC3CCN(C(=O)C(O)(c4cccc(Cl)c4)C(F)(F)F)CC3)CC2)cc1Cl (stereo not shown) [Example 2-24, 2-chloro-4-[4-({1-[2-(3-chlorophenyl)-3,3,3-trifluoro-2-hydroxy-propanoyl]piperidin-4-yl}oxy)piperidin-1-yl]-N,N-dimethyl-benzamide]	99	0.014	37		0.465						
CN(C)C(=O)c1ccc(N2CCC(CC3(C)CCN(C(=O)[C@](O)(c4cc(F)cc(Cl)c4)C(F)(F)F)CC3)CC2)cc1Cl [Example 2-54, 2-chloro-4-[4-({1-[(2R)-2-(3-chloro-5-fluorophenyl)-3,3,3-trifluoro-2-hydroxy-propanoyl]-4-methylpiperidin-4-yl}methyl)piperidin-1-yl]-N,N-dimethyl-benzamide]	79	0.004	23		0.038						

Results, then the compound that gave them:

Emax [1, 3] [%]	EC50 [1, 4] [µM]	Emax [2, 5] [%]	LXR alpha IP (nM) [2]	EC50 [2] [µM]	LXR beta Activity @ max dose (%) [1, 6] [%]	LXR alpha Activity @ max dose (%) [2, 6] [%]	EC50 ([1]; co-activator recruitment to GST-LXRbeta LBD, TR-FRET, read-out: LXR beta IP (Inflection Point, potency)) [µM]	Emax ([1]; efficacy in relation to reference dual agonist T0901317, read-out: LXR beta Activity @ max dose) [%]	LXR alpha IP (Inflection Point, potency) ([2]; co-activator recruitment to GST-LXRalpha LBD, TR-FRET)	Emax ([2]; efficacy in relation to reference dual agonist T0901317, read-out: LXR alpha Activity @ max dose) [%]	Structure (SMILES)
128	0.047	47		0.922							CN(C)C(=O)c1ccc(N2CCC(CC3CCN(C(=O)[C@@](O)(c4cccc(F)c4)C(F)(F)F)CC3)CC2)nc1Cl [Example 7-73, 2-chloro-N,N-dimethyl-6-[4-({1-[(2S)-3,3,3-trifluoro-2-(3-fluorophenyl)-2-hydroxypropanoyl]piperidin-4-yl}methyl)piperidin-1-yl]pyridine-3-carboxamide]
	0.019			0.455	91	46					CNC(=O)c1ccc(N2CCC(CC3CCN(C(=O)[C@](O)(c4ccccc4)C(F)(F)F)CC3)CC2)cc1Cl [Example 7-126, 2-chloro-N-methyl-4-[4-({1-[(2R)-3,3,3-trifluoro-2-hydroxy-2-phenylpropanoyl]piperidin-4-yl}methyl)piperidin-1-yl]benzamide]
65	0.028	19		0.762							CNC(=O)c1ccc(N2CCC(CC3CCN(C(=O)C(O)(c4cccc(C)c4)C(F)(F)F)CC3)CC2)cc1Cl (stereo not shown) [Example 7-36, 2-chloro-N-methyl-4-[4-({1-[3,3,3-trifluoro-2-hydroxy-2-(3-methylphenyl)propan-oyl]piperidin-4-yl}methyl)piperidin-1-yl]benzamide]
127	0.006	58		0.069							CNC(=O)c1ccc(N2CCC(CC3CCN(C(=O)[C@](O)(c4cccc(F)c4)C(F)(F)F)CC3)CC2)nc1Cl [Example 7-152, 2-chloro-N-methyl-6-[4-({1-[(2R)-3,3,3-trifluoro-2-(3-fluorophenyl)-2-hydroxypropanoyl]piperidin-4-yl}methyl)piperidin-1-yl]pyridine-3-carboxamide]
113	0.009	51		0.127							CNC(=O)c1ccc(N2CCC(CC3CCN(C(=O)[C@](O)(c4cccc(Br)c4)C(F)(F)F)CC3)CC2)nc1Cl [Example 7-146, 6-[4-({1-[(2R)-2-(3-bromophenyl)-3,3,3-trifluoro-2-hydroxypropanoyl]piperidin-4-yl}methyl)piperidin-1-yl]-2-chloro-N-methylpyridine-3-carboxamide]
							0.004	46	NO IP	12	CCOc1cccc([C@@](O)(C(=O)N2CCC(CC3CCN(c4ccc(C(N)=O)c(Cl)c4)CC3)CC2)C(F)(F)F)c1 [Example 12-8, 2-chloro-4-[4-({1-[(2R)-2-(3-ethoxyphenyl)-3,3,3-trifluoro-2-hydroxypropanoyl]-piperidin-4-yl}methyl)-piperidin-1-yl]-benzamide]
122	0.031	47		1.68							CN(C)C(=O)c1ccc(N2CCC(CC3CCN(C(=O)C(N)(c4ccccc4)C(F)(F)F)CC3)CC2)nc1Cl (stereo not shown) [Example 7-103, 6-(4-{[1-(2-amino-3,3,3-trifluoro-2-phenylpropanoyl)piperidin-4-yl]methyl}piperidin-1-yl)-2-chloro-N,N-dimethylpyridine-3-carboxamide]
